Reference: US6924304B2, “Cell proliferation inhibitors” (Abbott Laboratories, priority 1999, dated 2005)
Where a name gives a salt, the structure may show the parent alone.

Columns and labels:
[1] = tested on: human lung large cell carcinoma, MDR negative (NCI-H460) cells; assay: 48-hour cellular proliferation assay (sulforhodamine staining), NCI-H460 cells; format: cell-based; conditions: 10^−4 M compound; for inhibition at 100 µM: Homo sapiens, read-out: NCI-460 % inhibition at 10^−4 M
Experimental: (§1) Compounds of this invention were tested in a 48-hour cellular proliferation assay which uses human colon adenocarcinoma, MDR positive (HCT-15) cells, and human lung large cell carcinoma, MDR negative (NCI-H460) cells, in the 96-well microtitre format described in Skehan P., et al. New Colorimetric Cytotoxicity Assay for Anticancer Drug Screening. 1990, J. Natl. Cancer Inst. 82:1107-1112, hereby incorporated by reference. Briefly, the wells of a microtitre plate were charged sequentially with cultured cells and compounds of the invention (1.0×10^−4 to 1.0×10^−11 M in 10% DMSO prepared by dissolving compounds of the invention in DMSO and adding 11 μL of the DMSO solution to 100 μL of culture medium for a final DMSO concentration of 10%). Two of the following controls were also present in each microtitre plate: a solvent (DMSO) control without drug that yielded a 0% inhibition level and a trichloroacetic acid-treated well that yielded a 100% inhibition level. The cells were grown in culture (37° C., 5% CO2 atmosphere) for 48 hours then fixed by the addition of trichloroacetic acid. The wells were stained with sulforhodamine, washed with 1% acetic acid, and treated with 0.01 M tris buffer (100 μL) to solubilize the adherent dye. The absorbance of the dye solution was measured with a Molecular Devices SpectraMax340 plate reader. The percent inhibition values were obtained by calculating the proportional response of the experimental values to the absorbance values of the controls.

[2] = tested on: human colon adenocarcinoma, MDR positive (HCT-15) cells; assay: 48-hour cellular proliferation assay (sulforhodamine staining), HCT-15 cells; format: cell-based; conditions: 10^−4 M compound, HCT-15 cells (MDR positive); for inhibition at 100 µM: Homo sapiens
Experimental: as §1

Row | melting point [°C] | Compound | inhibition at 100 µM [1] [%] | inhibition at 100 µM [2] [%] | NCI-460 % inhibition at 10^−4 M [1] [%] | HCT-15 % inhibition at 10^−4 M [2] [%]
1 | 175 to 177 | COc1cc(N(C(=O)[C@@H](N)Cc2cnc[nH]2)S(=O)(=O)c2ccc3c(ccn3C)c2)cc(OC)c1OC [Example 76, N-((2S)-2-amino-3-(1H-imidazol-5-yl)propanoyl)-1-methyl-N-(3,4,5-trimethoxyphenyl)-1H-indole-5-sulfonamide] |  |  |  | 
2 | 65 to 67 | COc1ccc(CSc2cc(OC)c(OC)c(OC)c2)cc1 [Example 85, 1,2,3-trimethoxy-5-((4-methoxybenzyl)sulfanyl)benzene] | 99.6 | 99.8 |  | 
3 | 95 to 97 | COc1ccc(CS(=O)(=O)c2cc(OC)c(OC)c(OC)c2)cc1 [Example 87, 1,2,3-trimethoxy-5-((4-methoxybenzyl)sulfonyl)benzene] | 99.6 | 99.9 |  | 
4 | 103 to 105 | COc1ccc(C[S+]([O-])c2cc(OC)c(OC)c(OC)c2)cc1 (stereo not shown) [Example 86, 1,2,3-trimethoxy-5-((4-methoxybenzyl)sulfinyl)benzene] | 96.5 | 99.4 |  | 
5 |  | COc1cc(OS(=O)(=O)c2ccc(C)cc2)cc(OC)c1OC [Example 41, (3,4,5-trimethoxyphenyl) 4-methylbenzenesulfonate] | 99.5 | 99.8 |  | 
6 |  | COc1ccc(S(=O)(=O)C(C)(C)c2cc(OC)c(OC)c(OC)c2)cc1 [Example 95, 1,2,3-trimethoxy-5-(1-((4-methoxyphenyl)sulfonyl)-1-methylethyl)benzene] | 9.1 | 84.8 |  | 
7 |  | COc1ccc(S(=O)(=O)Oc2cc(OC)c(OC)c(OC)c2)cc1 [Example 40, (3,4,5-trimethoxyphenyl) 4-methoxybenzenesulfonate] | 99.9 | 99.9 |  | 
8 |  | COc1ccc(NC(=O)c2cc(OC)c(OC)c(OC)c2)cc1O [Example 22, N-(3-hydroxy-4-methoxyphenyl)-3,4,5-trimethoxybenzamide] | 99.5 | 99.8 |  | 
9 |  | COc1cc(NS(=O)(=O)c2ccc(C(F)(F)F)cc2)cc(OC)c1OC [Example 4, 4-trifluoromethyl-N-(3,4,5-trimethoxyphenyl)benzenesulfonamide] | 99.8 | 82.6 |  | 
10 |  | COc1ccc(C(C)(C)S(=O)(=O)c2cc(OC)c(OC)c(OC)c2)cc1N [Example 92, 2-methoxy-5-(1-methyl-1-((3,4,5-trimethoxyphenyl)sulfonyl)ethyl)aniline] | 9.1 | 67.1 |  | 
11 |  | COc1cc(S(=O)(=O)Nc2c(F)c(F)c(F)c(F)c2F)cc(OC)c1OC [Example 27, 3,4,5-trimethoxy-N-(2,3,4,5,6-pentafluorophenyl)benzenesulfonamide] | 61.6 | 57 |  | 
12 |  | COc1ccc(NS(=O)(=O)c2cc(OC)c(OC)c(OC)c2)cc1N [Example 28, N-(3-amino-4-methoxyphenyl)-3,4,5-trimethoxybenzenesulfonamide hydrochloride] | 99.8 | 99.9 |  | 
13 | 200 to 203 | COc1cc(N(C(=O)CN(C)C)S(=O)(=O)c2ccc3c(ccn3C)c2)cc(OC)c1OC (as salt: salt) [Example 67, N-((dimethylamino)acetyl)-1-methyl-N-(3,4,5-trimethoxyphenyl)-1H-indole-5-sulfonamide] |  |  |  | 
14 |  | 3,4-dimethoxy-N-(3,4,5-trimethoxyphenyl)benzamide [Example 2] |  |  | 99.6 | >95
15 |  | COc1cc(S(=O)(=O)N(C)c2ccc3c(ccn3C)c2)cc(OC)c1OC [Example 37, 3,4,5-trimethoxy-N-methyl-N-(1-methyl-1H-indol-5-yl)benzenesulfonamide] | 100 | 99.9 |  | 
